Measured values from publication PMC4937837 (Journal of Medicinal Chemistry, 2015).

Details: mouse liver microsomes, NADPH, 1 μM compound, 1 h incubation

O=C(NCCCCN1CCN(c2cccc3ccccc23)CC1)c1cnc2ccccc2c1 [Compound 32, N-(4-(4-(Naphthalen-1-yl)piperazin-1-yl)butyl)quinoline-3-carboxamide]
in vitro rate constant (k): −0.017
